Data from patent US8859463B2, “Method for controlling noxious organisms” (Sumitomo Chemical Company, Limited, priority 2009, dated 2014).

Tests used:
Type in all cases: in vivo
Aulacorthum solani = test: Insecticidal effect (protective value), soybean pot test, Example 1; conditions: clothianidin none, day 6 after release
Method: (§1) The evaluation of the insecticidal effect was performed by determining the life and death of the insects at the time of the investigation and calculating the protective value according to the following equation; Protective Value (%)=100×(1−T/C) wherein the symbols have the following meanings;
(§2) C: The number of insects at the time of observation in an untreated section: and
(§3) T: The number of insects at the time of observation in a treated section.
Thereafter, the test pot was placed in a greenhouse.

Spodoptera litura = test: Insecticidal effect (protective value), corn pot test, Example 4; conditions: clothianidin none, day 3 after release
Method: as §1, §2, §3
In addition, the clothianidin suspension was attached to the corn seeds in a similar manner except that it was used in an amount of 217.5 μL.
Thereafter, the test pot was placed in a greenhouse. On day 22 after corn sowing, 10 fourth-instar larvae of Spodoptera litura were released in the pot and the whole pot was then covered with a nylon cloth.
On day 3 after release of Spodoptera litura, the insecticidal effect was examined.

Ipomoea hederacea = test: Herbicidal effect, soybean Wagner pot test, Example 6; conditions: clothianidin none; flumioxazin 25 g/ha; day 11 after sowing; scale 0 to 100
Excerpt: A soil was packed in a 1/5000a Wagner pot. The above soybean seeds were sown in the Wagner pot at a rate of two seeds per pot, and the seeds of Ipomoea hederacea were sown in the pot at a rate of three seeds per pot.
On day 11 after sowing of the seeds of soybean and Ipomoea hederacea, the herbicidal effect and phytotoxicity were examined.

[1] = tested on: Ipomoea hederacea var. integriuscula; test: Herbicidal activity, soybean pot test, Example 58; conditions: strobilurin seed treatment none, twelve days after sowing
Method: (§4) In a plastic cup measuring 65 mm in inner diameter and 75 mm in height, 4.8 mg of a pyraclostrobin emulsifiable concentrate (emulsifiable concentrate containing 23.8% pyraclostrobin, manufactured by BASF under the trade name of Comet) and 12 soybean seeds were placed. The pyraclostrobin emulsifiable concentrate was adhered to the soybean seeds by shaking this plastic cup by hand. In the same manner, 13.2 mg of the pyraclostrobin emulsifiable concentrate was adhered to the soybean seeds. In the same manner, 4.8 mg of an azoxystrobin suspension (emulsifiable concentrate containing 22.9% azoxystrobin, manufactured by Syngenta under the trade name of Amistar) was adhered to the soybean seeds. In the same manner, 20.4 mg of an azoxystrobin suspension was adhered to the soybean seeds.
(§5) A water diluted solution of a trifloxystrobin granular wettable powder (2.6%) was prepared by adding 52 mg of a trifloxystrobin granular wettable powder (granular wettable powder containing 50% trifloxystrobin, manufactured by Bayer Crop Science Inc. under the trade name of Flint) to 1 mL of desalted water. 51.6 mg of this water diluted solution and 12 soybean seeds were placed in the plastic cup. The water diluted solution of trifloxystrobin was adhered to the soybean seeds by shaking this plastic cup by hand. In the same manner, 199.2 mg of the water diluted solution of trifloxystrobin was adhered to the soybean seeds.
(§6) A plastic pot measuring 194 mm in inner diameter and 176 mm in height was filled with the soil. In this pot, 2 soybean seeds were sown per 1 pot and 10 seeds of Ipomoea hederacea var. integriuscula and Senna obtusifolia were sown per 1 pot. On the day of sowing of the soybean seeds, after sowing the soybean seed, a flumioxazin granule (granule containing 0.25% flumioxazin, manufactured by Valent USA Corporation under the trade name of BroadStar) was uniformly scattered over a surface of the soil in the amount described in Tables 19 to 21 by hand.
(§7) Twelve days after sowing the seeds of soybean, Ipomoea hederacea var. integriuscula and Senna obtusifolia, herbicidal activity was examined.

Senna obtusifolia = test: Herbicidal activity, soybean pot test, Example 58; conditions: strobilurin seed treatment none, twelve days after sowing
Method: as §4, §5, §6, §7

Ipomoea lacunosa [2] = test: Herbicidal activity, corn pot test, Example 59; conditions: pyraclostrobin none, flumioxazin 25 g/ha, twelve days after sowing
Method: In a glass container measuring 60 mm in inner diameter and 20 mm in height, 8 mg of a pyraclostrobin emulsifiable concentrate (emulsifiable concentrate containing 23.8% pyraclostrobin, manufactured by BASF under the trade name of Comet) and 25 corn seeds were placed. After capping a glass container, the pyraclostrobin emulsifiable concentrate was adhered to the corn seeds by shaking the glass container by hand. In the same manner, 22 mg of the pyraclostrobin emulsifiable concentrate was adhered to the corn seeds.
(§8) A plastic pot measuring 194 mm in inner diameter and 176 mm in height was filled with the soil. In this pot, 2 corn seeds were sown per 1 pot and 10 seeds of Ipomoea lacunosa were sown per 1 pot. On the day of sowing of the corn seeds, after sowing the corn seeds, a water diluted solution (24.5 mg of product/liter) of a flumioxazin granular wettable powder (granular wettable powder containing 51% flumioxazin, manufactured by Valent USA Corporation under the trade name of Valor SX), a water diluted solution (66.7 mg of product/liter) of a sulfentrazone granular wettable powder (granular wettable powder containing 75% sulfentrazone, manufactured by FMC Corporation under the trade name of Cover), a water diluted solution (15 mg/liter) of saflufenacil and a water diluted solution (100 mg/liter) of oxyfluorfen were uniformly sprayed over a surface of the soil in each amount described in Tables 22 to 25, using a sprayer. The water diluted solutions of saflufenacil and oxyfluorfen were prepared by dissolving each predetermined amount of saflufenacil and oxyfluorfen in acetone containing 2% (w/v) Tween 20 and diluting each solution with water so as to adjust the concentration of acetone to 10% by volume.
Twelve days after sowing the seeds of corn and Ipomoea lacunose, herbicidal activity was examined.

Ipomoea lacunosa [3] = test: Herbicidal activity, corn pot test, Example 76; conditions: metalaxyl-M none, flumioxazin 25 g/ha, ten days after sowing
Method: In a glass container measuring 60 mm in inner diameter and 20 mm in height, 15 mg of a metalaxyl-M emulsifiable concentrate (emulsifiable concentrate containing 33.3% metalaxyl-M, manufactured by Syngenta under the trade name of Apron XL) and 25 corn seeds were placed. After capping this glass container, the metalaxyl-M emulsifiable concentrate was adhered to the corn seeds by shaking the glass container by hand. In the same manner, 33 mg of the metalaxyl-M emulsifiable concentrate was adhered to the corn seeds.
as §8, with “sulfentrazone” for “sulfentrazone,”, “28” for “22”, “31,” for “25,”
Ten days after sowing the seeds of corn and Ipomoea lacunosa, herbicidal activity was examined.

## C#CCN1C(=O)COc2cc(F)c(N3C(=O)C4=C(CCCC4)C3=O)cc21 [Flumioxazin, flumioxazin]
Aulacorthum solani; flumioxazin 12.5 g/ha
  Protective Value: 0%
Aulacorthum solani; flumioxazin 25 g/ha
  Protective Value: 0%
Spodoptera litura; flumioxazin 12.5 g/ha
  Protective Value: 0%
Spodoptera litura; flumioxazin 50 g/ha
  Protective Value: 5%
Ipomoea hederacea
  Evaluation of Effect on Weeds: 25
[1]; flumioxazin 25 g/ha
  Herbicidal activity Ipomoea hederacea var. integriuscula: 25
[1]; flumioxazin 100 g/ha
  Herbicidal activity Ipomoea hederacea var. integriuscula: 85
Senna obtusifolia; flumioxazin 25 g/ha
  Herbicidal activity Senna obtusifolia: 20
Senna obtusifolia; flumioxazin 100 g/ha
  Herbicidal activity Senna obtusifolia: 45
Ipomoea lacunosa [2]
  Herbicidal activity: 40
Ipomoea lacunosa [3]
  Herbicidal activity: 40
